Experimental data taken from ChEMBL document CHEMBL2062513, “Pd-mediated functionalization of polysubstituted pyrroles: their evaluation as potential inhibitors of PDE4” (Bioorg Med Chem Lett, 2012).

Experiments:
[1] = target: 3',5'-cyclic-AMP phosphodiesterase 4B (Homo sapiens) (UniProt Q07343); assay: Inhibition of recombinant His-tagged PDE4B expressed in Sf9 cells preincubated for 15 mins before cAMP addition measured after 1 hr by luminescence assay
[2] = target: 3',5'-cyclic-AMP phosphodiesterase 4B (Homo sapiens) (UniProt Q07343); assay: Inhibition of recombinant His-tagged PDE4B expressed in Sf9 cells at 30 uM preincubated for 15 mins before cAMP addition measured after 1 hr by luminescence assay

Sequence of 3',5'-cyclic-AMP phosphodiesterase 4B (Homo sapiens) (Q07343 whole entry): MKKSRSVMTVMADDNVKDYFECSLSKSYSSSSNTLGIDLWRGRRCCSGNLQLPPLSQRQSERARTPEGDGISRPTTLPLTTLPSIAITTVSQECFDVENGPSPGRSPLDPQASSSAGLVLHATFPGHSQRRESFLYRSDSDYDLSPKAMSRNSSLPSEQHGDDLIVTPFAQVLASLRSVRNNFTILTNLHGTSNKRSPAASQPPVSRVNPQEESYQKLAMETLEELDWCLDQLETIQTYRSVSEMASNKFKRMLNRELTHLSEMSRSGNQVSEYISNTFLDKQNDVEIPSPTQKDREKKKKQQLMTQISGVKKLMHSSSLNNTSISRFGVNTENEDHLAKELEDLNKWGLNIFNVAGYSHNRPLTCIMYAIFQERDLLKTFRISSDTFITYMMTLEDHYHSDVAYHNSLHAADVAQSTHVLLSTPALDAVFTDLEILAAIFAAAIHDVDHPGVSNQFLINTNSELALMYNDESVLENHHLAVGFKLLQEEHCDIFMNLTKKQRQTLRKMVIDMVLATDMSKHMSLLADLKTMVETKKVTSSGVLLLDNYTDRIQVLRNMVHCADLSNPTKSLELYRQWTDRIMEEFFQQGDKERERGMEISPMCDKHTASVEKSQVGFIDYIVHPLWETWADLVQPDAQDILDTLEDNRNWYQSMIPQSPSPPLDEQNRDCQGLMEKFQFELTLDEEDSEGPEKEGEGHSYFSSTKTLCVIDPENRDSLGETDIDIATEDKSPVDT

Row | inhibition [1] | inhibition [2] [%] | SMILES
1 | Dose-dependent effect | 76.7 | CCOC(=O)c1cc(-c2ccccc2)n(-c2ccc(/C(C)=C/C(=O)OC)cc2)c1C(=O)c1ccccc1
2 |  | 45.2 | CCOC(=O)c1cc(-c2ccccc2)n(-c2ccc(/C=C/C(=O)OC)cc2)c1C(=O)c1ccccc1
3 |  | 22.1 | CCCCCCC#Cc1ccc(-n2c(-c3ccccc3)cc(C(=O)OCC)c2C(=O)c2ccccc2)cc1
4 |  | 36.1 | CCOC(=O)c1cc(-c2ccccc2)n(-c2ccc(/C=C/C(=O)OC(C)(C)C)cc2)c1C(=O)c1ccccc1
5 |  | 24.8 | CCOC(=O)c1cc(-c2ccccc2)n(-c2ccc(-c3ccc(OC)cc3)cc2)c1C(=O)c1ccccc1
6 | Dose-dependent effect | 74.7 | CCOC(=O)/C=C/c1ccc(-n2c(-c3ccccc3)cc(C(=O)OCC)c2C(=O)c2ccccc2)cc1
